The text below walks through data of publication PMC5473904, “Epigenetic and antitumor effects of platinum(IV)-octanoato conjugates” (Scientific Reports, 2017).

Structures are written as SMILES.

Data set [1] in a line: log P (octanol/water) by shake flask method. Format: physicochemical. Conditions: 0.2 M aqueous NaCl.
Description: To quantify the hydrophobicity of the platinum complexes, the shake-flask method was used to measure partition coefficients (log P) values for octanol/water.
To determine the partition coefficient (P) the shake flask method was used. Octanol-saturated water (OSW) and water-saturated octanol (WSO) were prepared using analytical grade octanol and 0.2 M aqueous NaCl solution (to suppress hydrolysis of the chlorido complexes). […] Mixing was done by vortexing for 30 min at room temperature to establish the partition equilibrium. To separate the phases, centrifugation was done at 3000 g for 5 min. The aqueous layer was carefully separated from the octanol layer for platinum analysis. Platinum was quantified from aliquots taken from the octanol-saturated aqueous samples before and after partition by ICP-MS.
In data set [2] the test system is mitochondrial membrane potential Δψ m in HCT-116 cells. In words: Mitochondrial membrane potential, TMRE staining and confocal microscopy. Format: cell-based, human. Conditions: HCT-116, 1 µM, 5 h. As to the method: The loss of Δψ m represents an early event in the apoptosis cascade that precedes the release of pro-apoptotic factors such as cytochrome c and the activation of effector caspases.
HCT-116 cells were seeded on glass bottom dishes (P50G-0-30-F, MatTek Co., Ashland, USA) at the density 3 × 10^5 cells per dish, cultured in RPMI-1640 medium (without phenol red) and incubated at 37 °C in a humidified 5% CO2 atmosphere overnight. The cells were subsequently treated with the compounds (1 μM) for 5 h. After this period, cells were washed twice with PBS and resuspended in staining medium (without Pt compound), supplemented with Hoechst 33258 and tetramethylrhodamine, ethyl ester (TMRE) from multiparametric apoptosis assay kit (Cayman Chemical, Michigan, USA) according to the manufacturer’s protocol. After 20 min of staining, the staining medium was replaced by a fresh medium (without staining dye and platinum compound).
Images of living cells were acquired with a Leica TSC SP-5X laser scanning confocal microscope (Leica Microsystems, Mannheim, Germany) using an HCX PL APO lambda blue 63.0 × 1.20 water UV objective lens corrected with an appropriate beam path (resolution 1024 × 1024, frequency 100 Hz). […] Quantification of the mean signal intensity associated with single cells was performed using software ImageJ v1.47, U.S. National Institutes of Health, Bethesda, Maryland, USA.

The test system of data set [3] is A2780 human ovarian carcinoma cells. Set-up: method as in PMID 25888926. Conditions: compared with Pt(IV)diOA value of Table 1; cited from earlier work.
Data set [4] has as its system A2780cisR human ovarian carcinoma cells. Also on record: method as in PMID 25888926. To be noted: compared with Pt(IV)diOA value of Table 1; cited from earlier work.
In data set [5] the test system is MCF-7 human breast cancer cells. Also on record: method as in PMID 25888926. Conditions: compared with Pt(IV)diOA value of Table 1; cited from earlier work.
On the set-up of data set [6]: method as in PMID 25888926. Conditions: valproato complexes; cited from earlier work.
The test system of data set [7] is MRC-5 (PD30) human fetal lung fibroblasts. Description: MTT cytotoxicity, 72 h. The format is cell-based. Conditions: platinum complexes.
The test system of data set [8] is DNA methylation in HCT-116 cells. Description: DNA methylation analysis (Imprint methylated DNA quantification kit). To be noted: HCT-116, 30 µM, 72 h. The format is cell-based, human. As to the method:
Human colon adenocarcinoma cells HCT-116 were chosen as the model cellular system suitable for DNA methylation analysis because: (i) this human colorectal cancer cell line has been used as a prototypic model for analyses of the genetic basis of cancer, and the role of epigenetic changes in tumorigenesis; (ii) they have a propensity to both global DNA hypomethylation and to silence genes through promoter focal hypermethylation, [21]. HCT-116 cells were treated with the compounds at the concentrations indicated in Fig. 4A for 24 or 72 h and DNA was isolated for the complete methylation analysis as described in the experimental section. Decitabine (5-aza-2′-deoxycytidine), a hypomethylating agent which hypomethylates DNA by inhibiting DNMT, was used in these experiments as a […]. The IC50 values found for this agent in HCT-116 cells (the drug-treatment period was 72 h) was (7.5 ± 0.3) µM (Table 1).
Figure 4 Analysis of DNA methylation. (A) DNA was isolated from HCT-116 cells after the exposure to the agents at the concentrations indicated in the graph for 24 or 72 h. The levels of DNA methylation in the control was taken as 100%. The bars represent mean values from three independent experiments each performed in octuplicate. The error bars are the SDs. (B) DNMT activity in colon carcinoma cells HCT-116 treated for 24 h with the compounds tested in the present work. The DNMT activity in the control, untreated cells was taken as 100%. Error bars are the SDs and the stars at the top of bars denote a significant difference from the control with (*p < 0.05; **p < […]), calculated using […] student’s t-test. The bars represent mean values from three independent experiments, each performed in quadruplicate.
Human colon carcinoma cells (HCT-116) were seeded at the density 1.5 × 10^6 cells/dish. […] The DNA content in each sample was determined by UV spectrophotometry. DNA (200 ng) from the samples was loaded to the Imprint methylated DNA quantification kit (Sigma-Aldrich, USA). The level of methylated DNA was proportional to the absorbance measured at 450 nm.

What is called log P is the decadic logarithm of the partition coefficient of the neutral form, usually between octanol and water. The term IC50 denotes the concentration that inhibits the measured activity by half. The term logP denotes a log measure of how a compound divides between an organic and an aqueous phase.

Turning to `CC(=O)[O][Pt]([NH2])([NH2])([Cl])([Cl])[O]C(C)=O` [Pt(IV)diAc, cis, cis, trans-[Pt(IV)(NH3)2Cl2(Ac)2]], in data set [1], the “log P” value is reported as −1.85 ± 0.09. Further, in data set [2], the “Reduction in the fraction of cells with an intact Δψ m relative to untreated control” value is given as “no reduction”.
`CCCC(CCC)C(=O)[O][Pt]([NH2])([NH2])([Cl])([Cl])[O]C(=O)C(CCC)CCC` [Pt(IV)diVPA, cis, cis, trans-[Pt(IV)(NH3)2Cl2(VPA)2]]: the IC50 in data set [3] is 250 ± 90 nM; in data set [4] it was 300 ± 100 nM; in data set [5], 900 ± 300 nM. Further, in data set [6], the logP is recorded as 0.25.
In data set [7], `N.N.[Cl][Pt][Cl]` [cisplatin, reference compound] registered an IC50 of 10600 ± 380 nM. Moreover, the “Change of DNA methylation” value in data set [8] is reported as “non-significant change”.
In the case of `CCCCCCCC(=O)[O][Pt]([NH2])([NH2])([Cl])([Cl])[O]C(=O)CCCCCCC` [Pt(IV)diOA, cis, cis, trans-[Pt(IV)(NH3)2Cl2(OA)2]], in data set [7], the IC50 was found to be 52 ± 3 nM.
